Values after ≈ are worked out from the molar mass of the structure shown.

In general, MIC refers to the least concentration at which growth counts as inhibited.

The test system of the first assay is M tb H37Rv. As to the kind of experiment: MIC determination against M tb H37Rv (green fluorescent protein reporter assay; MIC-MABA). Particulars: M. tb H37Rv; 7H9 broth; 10 days exposure; MIC = lowest concentration inhibiting fluorescence by 90%. The assay is classed as cell-based, Mycobacterium tuberculosis.
For `Cc1cc(F)c2cc(C(=O)N[C@H]3C[C@H]4C[C@@H]([C@@H]3C)C4(C)C)[nH]c2n1` [MPL-043, 4-fluoro-6-methyl-N-[(1S,2S,3S,5R)-2,6,6-trimethylnorpinan-3-yl]-1H-pyrrolo[2,3-b]pyridine-2-carboxamide], the “M. TB H37Rv: MIC-MABA: MIC” value came out at 0.17 µg/mL.

Still in this assay, the particulars now being: Mycobacterium tuberculosis, H37RV, 240 h, read-out: M. TB H37Rv: MIC-MABA: MIC, M. tb H37Rv; 7H9 broth; 10 days exposure; MIC = lowest concentration inhibiting fluorescence by 90%.
For `O=C(NC1CC2CCC(C2)C1)c1cc2c(F)ccnc2[nH]1` (stereo not shown) [MPL-157, N-(3-bicyclo[3.2.1]octanyl)-4-fluoro-1H-pyrrolo[2,3-b]pyridine-2-carboxamide], the MIC was 2.6 µg/mL (≈ 9.05 µM).
Still for that read-out and setting: with `CC1(C)[C@H]2C[C@H](NC(=O)c3cc4c(Cl)cncc4[nH]3)[C@](C)(O)[C@@H]1C2` [MPL-222, 4-chloro-N-[(1R,2R, 3S, 5R)-2-hydroxy-2,6,6-trimethyl-norpinan-3-yl]-1H-Pyrrolo[2,3-c]pyridine-2-carboxamide] the figure was 0.19 µg/mL (≈ 0.546 µM); with `Cc1ncc2[nH]c(C(=O)NC3CC[Si](C)(C)CC3)c(C)c2c1F` [MPL-352, N-(1,1-dimethylsilinan-4-yl)-4-fluoro-3,5-dimethyl-1H-pyrrolo[2,3-c]pyridine-2-carboxamide], 0.122 µg/mL (≈ 0.366 µM).
Same read-out and setting: to `C[C@@H]1[C@@H](NC(=O)c2cc3c(F)c(Cl)ncc3[nH]2)C[C@H]2C[C@@H]1C2(C)C` [MPL-138, 5-chloro-4-fluoro-N-[(1S,2S,3S,5R)-2,6,6-trimethylnorpinan-3-yl]-1H-pyrrolo[2,3-c]pyridine-2-carboxamide] belongs 2.9 µg/mL (≈ 8.29 µM).
For `Cc1cc(Cl)c2cc(C(=O)NC3CC[Si]4(CCCC4)CC3)[nH]c2n1` [MPL-276, 4-chloro-6-methyl-N-(5-silaspiro[4.5]decan-8-yl)-1H-pyrrolo[2,3-b]pyridine-2-carboxamide], the minimal inhibitory concentration (MIC) was 0.015 µg/mL (≈ 0.0414 µM).
Regarding `CC1(C)CCC(NC(=O)c2cc3cc(F)ncc3[nH]2)CC1` [MPL-129, N-(4,4-dimethylcyclohexyl)-5-fluoro-1H-pyrrolo[2,3-c]pyridine-2-carboxamide], the minimal inhibitory concentration (MIC) was 0.5 µg/mL (≈ 1.73 µM).
The same measure, in the same setting: to `Cc1ncc2[nH]c(C(=O)NC3CC[Si](C)(C)CC3)cc2c1F` [MPL-318, N-(1,1-dimethylsilinan-4-yl)-4-fluoro-5-methyl-1H-pyrrolo[2,3-c]pyridine-2-carboxamide] belongs 0.134 µg/mL (≈ 0.419 µM); to `C[Si]1(C)CCC(NC(=O)c2cc3cc(-c4ccccc4)cnc3[nH]2)CC1` [MPL-391, N-(1,1-dimethylsilinan-4-yl)-5-phenyl-1H-pyrrolo[2,3-b]pyridine-2-carboxamide], 0.051 µg/mL (≈ 0.14 µM); to `Cc1nc2[nH]c(C(=O)NC3CCC[Si](C)(C)CCC3)cc2c(F)c1F` [MPL-301, N-(1,1-dimethylsilocan-5-yl)-4,5-difluoro-6-methyl-1H-pyrrolo[2,3-b]pyridine-2-carboxamide], 0.015 µg/mL (≈ 0.041 µM).
Same read-out and setting: to `Cc1c(C(=O)NC2CC[Si](C)(C)CC2)[nH]c2nccc(F)c12` [MPL-210, N-(1,1-dimethylsilinan-4-yl)-4-fluoro-3-methyl-1H-pyrrolo[2,3-b]pyridine-2-carboxamide] belongs 0.058 µg/mL (≈ 0.182 µM); to `O=C(NC12CCC(CC1)CC2)c1cc2c(Cl)cncc2[nH]1` [MPL-170, N-(4-bicyclo[2.2.2]octanyl)-4-chloro-1H-pyrrolo[2,3-c]pyridine-2-carboxamide], 0.1 µg/mL (≈ 0.329 µM).
On the same count and under the same terms, to `CC1(C)[C@H]2C[C@H](NC(=O)c3cc4c(C#N)ccnc4[nH]3)[C@](C)(O)[C@@H]1C2` [MPL-215, 4-cyano-N-[(1R,2R,3S,5R)-2-hydroxy-2,6,6-trimethyl-norpinan-3-yl]-1H-pyrrolo[2,3-b]pyridine-2-carboxamide] belongs 1.4 µg/mL (≈ 4.14 µM); to `C[Si]1(C)CCC(NC(=O)c2cc3cc(C(F)(F)F)ncc3[nH]2)CC1` [MPL-321, N-(1,1-dimethylsilinan-4-yl)-5-(trifluoromethyl)-1H-pyrrolo[2,3-c]pyridine-2-carboxamide], 0.519 µg/mL (≈ 1.46 µM); to `O=C(NC1CC[Si]2(CCCCC2)CC1)c1cc2c(Cl)cncc2[nH]1` [MPL-260, 4-chloro-N-(6-silaspiro[5.5]undecan-3-yl)-1H-pyrrolo[2,3-c]pyridine-2-carboxamide], 0.0075 µg/mL (≈ 0.0207 µM).
For `O=C(NC1CCC2(CC1)CC2(F)F)c1cc2c(Cl)cncc2[nH]1` (stereo not shown) [MPL-164, 4-chloro-N-(1,1-difluorospiro[2.5]octan-6-yl)-1H-pyrrolo[2,3-c]pyridine-2-carboxamide], the MIC came to 0.35 µg/mL (≈ 1.03 µM).
On the same count and under the same terms, to `COc1cncc2[nH]c(C(=O)NC3CC[Si](C)(C)CC3)cc12` [MPL-202, N-(1,1-dimethylsilinan-4-yl)-4-methoxy-1H-pyrrolo[2,3-c]pyridine-2-carboxamide] belongs 0.11 µg/mL (≈ 0.346 µM); to `CC1(C)CCC(NC(=O)c2cc3c(C#N)cncc3[nH]2)CC1` [MPL-097, 4-cyano-N-(4,4-dimethylcyclohexyl)-1H-pyrrolo[2,3-c]pyridine-2-carboxamide], 0.16 µg/mL (≈ 0.54 µM); to `Cc1cc(Cl)c2cc(C(=O)NC3CC[Si]4(CCCCC4)CC3)[nH]c2n1` [MPL-277, 4-chloro-6-methyl-N-(6-silaspiro[5.5]undecan-3-yl)-1H-pyrrolo[2,3-b]pyridine-2-carboxamide], 0.045 µg/mL (≈ 0.12 µM).
Still for that read-out and setting: with `COc1cc(F)cc2[nH]c(C(=O)NC3CC[Si](C)(C)CC3)cc12` [MPL-196, N-(1,1-dimethylsilinan-4-yl)-6-fluoro-4-methoxy-1H-indole-2-carboxamide] the figure was 0.0048 µg/mL (≈ 0.0144 µM); with `COc1cc(Cl)c2cc(C(=O)NC3CC[Si](C)(C)CC3)[nH]c2n1` [MPL-465, 4-chloro-N-(1,1-dimethylsilinan-4-yl)-6-methoxy-1H-pyrrolo[2,3-b]pyridine-2-carboxamide], 0.008 µg/mL (≈ 0.0227 µM); with `Cc1nc(Cl)c(F)c2cc(C(=O)NC3CC[Si](C)(C)CC3)[nH]c12` [MPL-236, 5-chloro-N-(1,1-dimethylsilinan-4-yl)-4-fluoro-7-methyl-1H-pyrrolo[2,3-c]pyridine-2-carboxamide], 0.18 µg/mL (≈ 0.509 µM).
Turning to `C[C@@H]1[C@@H](NC(=O)c2cc3cc(F)ncc3[nH]2)C[C@H]2C[C@@H]1C2(C)C` [MPL-128, 5-fluoro-N-[(1S,2S,3S,5R)-2,6,6-trimethylnorpinan-3-yl]-1H-pyrrolo[2,3-c]pyridine-2-carboxamide], the MIC turned out to be 2.3 µg/mL (≈ 7.29 µM).
With `CC1(C)C2CCC1(C)C(NC(=O)c1cc3c(C(F)(F)F)cncc3[nH]1)C2` (stereo not shown) [MPL-190, 4-(trifluoromethyl)-N-(1,7,7-trimethylnorbornan-2-yl)-1H-pyrrolo[2,3-c]pyridine-2-carboxamide], the MIC was 0.24 µg/mL (≈ 0.657 µM).
The same measure, in the same setting: to `Cc1cc(F)c2cc(C(=O)N[C@H]3C[C@H]4C[C@@H]([C@@H]3C)C4(C)C)[nH]c2n1` [MPL-043, 4-fluoro-6-methyl-N-[(1S,2S,3S,5R)-2,6,6-trimethylnorpinan-3-yl]-1H-pyrrolo[2,3-b]pyridine-2-carboxamide] belongs 0.14 µg/mL (≈ 0.425 µM).
Same read-out and setting: with `CNc1ccnc2[nH]c(C(=O)NC3CCCCCCC3)cc12` [MPL-040, N-cyclooctyl-4-(methylamino)-1H-pyrrolo[2,3-b]pyridine-2-carboxamide] the figure was 6.2 µg/mL (≈ 20.6 µM); with `CC1(C)[C@H]2C[C@H](NC(=O)c3cc4c(F)ccnc4[nH]3)[C@](C)(O)[C@@H]1C2` [MPL-213, 4-fluoro-N-[(1R,2R,3S,5R)-2-hydroxy-2,6,6-trimethyl-norpinan-3-yl]-1H-pyrrolo[2,3-b]pyridine-2-carboxamide], 0.046 µg/mL (≈ 0.139 µM); with `CC1(C)CCC(NC(=O)c2cc3c(Br)ccnc3[nH]2)CC1` [MPL-007, 4-bromo-N-(4,4-dimethylcyclohexyl)-1H-pyrrolo[2,3-b]pyridine-2-carboxamide], 0.12 µg/mL (≈ 0.343 µM).
Regarding `Cc1cc(Cl)c2cc(C(=O)N[C@@H]3CC[Si](C)(C)C3)[nH]c2n1` (single isomer, unassigned) [MPL-401A], the minimal inhibitory concentration (MIC) came to 0.319 µg/mL (≈ 0.991 µM).
The same measure, in the same setting: with `C[Si]1(C)CCC(NC(=O)c2cc3ccc(OC4CCC4)nc3[nH]2)CC1` [MPL-467, 6-(cyclobutoxy)-N-(1,1-dimethylsilinan-4-yl)-1H-pyrrolo[2,3-b]pyridine-2-carboxamide] the figure was 0.121 µg/mL (≈ 0.338 µM); with `C[C@@H]1[C@@H](NC(=O)c2cc3c(Cl)cncc3[nH]2)C[C@H]2C[C@@H]1C2(C)C` [MPL-006, 4-chloro-N-[(1S,2S,3S,5R)-2,6,6-trimethylnorpinan-3-yl]-1H-pyrrolo[2,3-c]Pyridine-2-carboxamide], 0.3 µg/mL (≈ 0.904 µM).
With `Cc1cc2cc(C(=O)N[C@H]3C[C@H]4C[C@@H]([C@@H]3C)C4(C)C)[nH]c2nc1C` [MPL-070, 5,6-dimethyl-N-((1S,2S,3S,5R)-2,6,6-trimethylbicyclo[3.1.1]heptan-3-yl)-1H-pyrrolo[2,3-b]pyridine-2-carboxamide], the MIC stood at 0.49 µg/mL (≈ 1.51 µM).
Still for that read-out and setting: to `CNc1ccnc2[nH]c(C(=O)N[C@H]3C[C@H]4C[C@@H]([C@@H]3C)C4(C)C)cc12` [MPL-023, 4-(methylamino)-N-[(1S,2S,3S,5R)-2,6,6-trimethylnorpinan-3-yl]-1H-pyrrolo[2,3-b]pyridine-2-carboxamide] belongs 11 µg/mL (≈ 33.7 µM).
The same measure, in the same setting: with `C[Si]1(C)CCC(NC(=O)c2cc3c(F)c(Cl)ncc3[nH]2)CC1` [MPL-345, 5-chloro-N-(1,1-dimethylsilinan-4-yl)-4-fluoro-1H-pyrrolo[2,3-c]pyridine-2-carboxamide] the figure was 0.498 µg/mL (≈ 1.47 µM).
The same measure, in the same setting: to `C[Si]1(C)CCC(NC(=O)c2cc3cc(C(F)(F)F)ncc3[nH]2)C1` (stereo not shown) [MPL-402, N-(1,1-dimethylsilolan-3-yl)-5-(trifluoromethyl)-1H-pyrrolo[2,3-c]pyridine-2-carboxamide] belongs 0.962 µg/mL (≈ 2.82 µM); to `Cc1nc2[nH]c(C(=O)NC3CCCC[Si](C)(C)CC3)cc2c(F)c1Cl` (stereo not shown) [MPL-292, 5-chloro-N-(1,1-dimethylsilocan-4-yl)-4-fluoro-6-methyl-1H-pyrrolo[2,3-b]pyridine-2-carboxamide], 0.0271 µg/mL (≈ 0.071 µM).
On to `O=C(NC1CCCCCCC1)c1cc2c(C3CC3)ccnc2[nH]1` [MPL-039, N-cyclooctyl-4-cyclopropyl-1H-pyrrolo[2,3-b]pyridine-2-carboxamide], for which the minimum inhibitory concentration (MIC) came to 0.39 µg/mL (≈ 1.25 µM).
On the same count and under the same terms, to `Cc1c(C(=O)NC2CC[Si](C)(C)CC2)[nH]c2cncc(F)c12` [MPL-226, N-(1,1-dimethylsilinan-4-yl)-4-fluoro-3-methyl-1H-pyrrolo[2,3-c]pyridine-2-carboxamide] belongs 0.75 µg/mL (≈ 2.35 µM); to `O=C(NC1CCCCCCC1)c1cc2c(F)ccnc2[nH]1` [MPL-027, N-cyclooctyl-4-fluoro-1H-pyrrolo[2,3-b]pyridine-2-carboxamide], 0.61 µg/mL (≈ 2.11 µM).
`Cc1ccnc2[nH]c(C(=O)NC3CCCCCCC3)cc12` [MPL-031, N-cyclooctyl-4-methyl-1H-pyrrolo[2,3-b]pyridine-2-carboxamide]: the MIC stood at 0.25 µg/mL (≈ 0.876 µM).

For the origin of these results see patent publication US20230002372A1, “AZAINDOLE CARBOXAMIDE COMPOUNDS FOR THE TREATMENT OF MYCOBACTERIAL INFECTIONS” (THE GLOBAL ALLIANCE FOR TB DRUG DEVELOPMENT, INC., priority 2019, published 2023).
